For series [1], the system named is TTR. Description: TTR editing in primary cyno hepatocytes electroporated with Spy Cas9 protein and dgRNAs (Tables 10, 11). It counts as cell-based, cynomolgus monkey. Conditions: primary cyno hepatocytes electroporated with Spy Cas9 protein (RNP) and cyno specific dgRNAs. How it is done: (§1) Primary liver hepatocytes. Primary human liver hepatocytes (PHH) and primary cynomolgus liver hepatocytes (PCH) (Gibco) were cultured per the manufacturer's protocol (Invitrogen, protocol 11.28.2012). In brief, the cells were thawed and resuspended in hepatocyte thawing medium with supplements (Gibco, Cat. CM7000) followed by centrifugation at 100 g for 10 minutes for human and 80 g for 4 minutes for cyno. The supernatant was discarded and the pelleted cells resuspended in hepatocyte plating medium plus supplement pack (Invitrogen, Cat. A1217601 and CM3000). Cells were counted and plated on Bio-coat collagen I coated 96-well plates (ThermoFisher, Cat. 877272) at a density of 33,000 cells/well for human or 60,000 cells/well for cyno (or 65,000 cells/well when assaying effects on TTR protein, described further below). Plated cells were allowed to settle and adhere for 6 or 24 hours in a tissue culture incubator at 37° C. and 5% CO2 atmosphere. After incubation cells were checked for monolayer formation and media was replaced with hepatocyte culture medium with serum-free supplement pack (Invitrogen, Cat. A1217601 and CM4000).
(§2) […] formation was performed prior to electroporation or transfection of Spy Cas9 protein loaded with guide RNAs (RNPs) onto cells. For dual guide (dgRNAs), individual crRNA and trRNA was pre-annealed by mixing equivalent amounts of reagent and incubating at 95° C. for 2 min and cooling to room temperature. Single guide (sgRNAs) were boiled at 95° C. for 2 min and cooling to room temperature. The boiled dgRNA or sgRNA was incubated with Spy Cas9 protein in Optimem for 10 minutes at room temperature to form a ribonucleoprotein (RNP) complex.
(§3) For RNP electroporation into primary human and cyno hepatocytes, the cells are thawed and resuspended in Lonza electroporation Primary Cell P3 buffer at a concentration of 2500 cells per μL for human hepatocytes and 3500 cells per μL for cyno hepatocytes. A volume of 20 μL of resuspended cells and 5 μL of RNP are mixed together per guide. 20 μL of the mixture is placed into a Lonza electroporation plate. The cells were electroporated using the Lonza nucleofector with the preset protocol EX-147. Post electroporation, the cells are transferred into a Biocoat plate containing pre-warmed maintenance media and placed in a tissue culture incubator at 37° C. and 5% CO2.
(§4) Transfected cells were harvested post-transfection at 24, 48, or 72 hours. The genomic DNA was extracted from each well of a 96-well plate using 50 μL/well BuccalAmp DNA Extraction solution (Epicentre, Cat. QE09050) per manufacturer's protocol. All DNA samples were subjected to PCR and subsequent NGS analyses, as described herein.
(§5) To quantitatively determine the efficiency of editing at the target location in the genome, sequencing was utilized to identify the presence of insertions and deletions introduced by gene editing.
(§6) Primers were designed around the target site within the gene of interest (e.g. TTR), and the genomic area of interest was amplified.
(§7) Additional PCR was performed per the manufacturer's protocols (Illumina) to add chemistry for sequencing. The amplicons were sequenced on an Illumina MiSeq instrument. The reads were aligned to a reference genome (e.g., the human reference genome (hg38), the cynomologus reference genome (mf5), the rat reference genome (rn6), or the mouse reference genome (mm10)) after eliminating those having low quality scores. The resulting files containing the reads were mapped to the reference genome (BAM files), where reads that overlapped the target region of interest were selected and the number of wild type reads versus the number of reads which contain an insertion, substitution, or deletion was calculated.
(§8) The editing percentage (e.g., the “editing efficiency” or “percent editing” or “indel frequency”) is defined as the total number of sequence reads with insertions/deletions (“indels”) or substitutions over the total number of sequence reads, including wild type. […]

In series [2] the test system is TTR. The series can be described thus: TTR editing in HEK293_Cas9 cells transfected with dgRNAs (Table 4). In kind it is cell-based, human. Conditions: HEK293_Cas9 cells (constitutively express Spy Cas9) transfected with dgRNAs. As to the method: HEK293 Cas9 cell line. The human embryonic kidney adenocarcinoma cell line HEK293 constitutively expressing Spy Cas9 (“HEK293_Cas9”) was cultured in DMEM media supplemented with 10% fetal bovine serum and 500 μg/ml G418. Cells were plated at a density of 10,000 cells/well in a 96-well plate 24 hours prior to transfection. Cells were transfected with Lipofectamine RNAiMAX (ThermoFisher, Cat. 13778150) per the manufacturer's protocol. Cells were transfected with a lipoplex containing individual crRNA (25 nM), trRNA (25 nM), Lipofectamine RNAiMAX (0.3 μL/well) and OptiMem.
as §4, §5, §6, §7
(§9) The editing percentage (e.g., the “editing efficiency” or “percent editing” or “indel frequency”) is defined as the total number of sequence reads with insertions/deletions (“indels”) or substitutions over the total number of sequence reads, including wild type.
(§10) Guides in dgRNA format targeting human TTR and the cynomologus matched sequences were delivered to HEK293 Cas9, HUH7 and HepG2 cell lines, as well as primary human hepatocytes and primary cynomolgus monkey hepatocytes as described in Example 1. Percent editing was determined for crRNAs comprising each guide sequence across each cell type and the guide sequences were then rank ordered based on highest % edit. The screening data for the guide sequences in Table 1 in all five cell lines are listed below (Table 4 through 11).

In series [3] the test system is TTR. The series can be described thus: TTR editing in HUH7 cells transfected with Spy Cas9 mRNA and dgRNAs (Table 5). It counts as cell-based, human. Particulars: HUH7 cells co-transfected with Spy Cas9 mRNA (SEQ ID NO:2) and dgRNAs. How it is done: HUH7 cell line. The human hepatocellular carcinoma cell line HUH7 (Japanese Collection of Research Bioresources Cell Bank, Cat. JCRB0403) was cultured in DMEM media supplemented with 10% fetal bovine serum. Cells were plated on at a density of 15,000 cells/well in a 96-well plate 20 hours prior to transfection. Cells were transfected with Lipofectamine MessengerMAX (ThermoFisher, Cat. LMRNA003) per the manufacturer's protocol. Cells were sequentially transfected with a lipoplex containing Spy Cas9 mRNA (100 ng), MessengerMAX (0.3 μL/well) and OptiMem followed by a separate lipoplex containing individual crRNA (25 nM), tracer RNA (25 nM), MessengerMAX (0.3 μL/well) and OptiMem.
as §4, §5, §6, §7, §9, §10

Series [4] deals with TTR. The series can be described thus: TTR editing in HepG2 cells transfected with Spy Cas9 mRNA and dgRNAs (Table 6). In kind it is cell-based, human. Particulars: HepG2 cells co-transfected with Spy Cas9 mRNA (SEQ ID NO:2) and dgRNAs. How it is done:
HepG2 cell line. The human hepatocellular carcinoma cell line HepG2 (American Type Culture Collection, Cat. HB-8065) was cultured in DMEM media supplemented with 10% fetal bovine serum. Cells were counted and plated on Bio-coat collagen I coated 96-well plates (ThermoFisher, Cat. 877272) at a density of 10,000 cells/well in a 96-well plate 24 hours prior to transfection. Cells were transfected with Lipofectamine 2000 (ThermoFisher, Cat. 11668019) per the manufacturer's protocol. Cells were sequentially transfected with lipoplex containing Spy Cas9 mRNA (100 ng), Lipofectamine 2000 (0.2 μL/well) and OptiMem followed by a separate lipoplex containing individual crRNA (25 nM), tracer RNA (25 nM), Lipofectamine 2000 (0.2 μL/well) and OptiMem.
as §4, §5, §6, §7, §9, §10

Series [5] relates to TTR. Description: TTR editing in primary human hepatocytes electroporated with Spy Cas9 protein loaded with dgRNAs (Table 7). It counts as cell-based. Particulars: dgRNA electroporated with Spy Cas9 protein (RNP). As to the method:
as §1, §2, §3, §4, §5, §6, §7, §8

The test system of series [6] is TTR. Description: TTR editing in primary human hepatocytes transfected with Spy Cas9 protein (RNP) loaded with dgRNAs (Table 8). In kind it is cell-based. Conditions: dgRNA transfected with Spy Cas9 protein (RNP). How it is done:
as §1, §2
For RNP lipoplex transfections, cells were transfected with Lipofectamine RNAiMAX (ThermoFisher, Cat. 13778150) per the manufacturer's protocol. Cells were transfected with an RNP containing Spy Cas9 (10 nM), individual guide (10 nM), tracer RNA (10 nM), Lipofectamine RNAiMAX (1.0 μL/well) and OptiMem. RNP formation was performed as described above.
as §4, §5, §6, §7, §9
Guides in dgRNA format targeting human TTR and the cynomologus matched sequences were delivered to HEK293 Cas9, HUH7 and HepG2 cell lines, as well as primary human hepatocytes and primary cynomolgus monkey hepatocytes as described in Example 1. […]

For series [7], the system named is TTR. The series can be described thus: TTR editing in primary human hepatocytes transfected with Spy Cas9 mRNA and dgRNAs (Table 9). Conditions: dgRNA co-transfected with Spy Cas9 mRNA (SEQ ID NO:2). In kind it is cell-based. As to the method: as §1
Lipofectamine RNAiMax (ThermoFisher, Cat. 13778150) based transfections were conducted as per the manufacturer's protocol. Cells were sequentially transfected with a lipoplex containing Spy Cas9 mRNA (100 ng), Lipofectamine RNAiMax (0.4 μL/well) and OptiMem followed by a separate lipoplex containing crRNA (25 nM) and tracer RNA (25 nM) or sgRNA (25 nM), Lipofectamine RNAiMax (0.4 μL/well) and OptiMem.
as §4, §5, §6, §7, §9, §10

Consider “AAAAGGCUGCUGAUGAGACC (tested as dual guide RNA, chemistry not given here) [CR005372]”, for which, in the series with TTR [1], the “Avg % Deletion” value was 17.16%, the “Avg % Edit” value came to 17.98% and the “Avg % Insert” value worked out at 0.83%.

For “AAAGGCUGCUGAUGAGACCU (tested as dual guide RNA, chemistry not given here) [CR005364]”, in the series on TTR [1], the “Avg % Deletion” value amounted to 27.11%, the “Avg % Edit” value was found to be 27.70% and the “Avg % Insert” value is listed as 0.58%.

As to “AAAGUUCUAGAUGCCGUCCG (tested as dual guide RNA, chemistry not given here) [CR005369]”, in the series on TTR [1], the “Avg % Deletion” value is on record as 33.92%, the “Avg % Edit” value came out at 42.01% and the “Avg % Insert” value was 8.09%.

With “AAGUGACUUCCAGUAAGAUU (tested as dual guide RNA, chemistry not given here) [CR005371]”, in the series with TTR [1], the “Avg % Deletion” value is listed as 8.10%, the “Avg % Edit” value amounted to 8.42% and the “Avg % Insert” value is given as 0.31%.

In the case of “ACACAAAUACCAGUCCAGCG (tested as dual guide RNA, chemistry not given here) [CR000689]”, in the series on TTR [1], the “Avg % Deletion” value was determined as 6.30%, the “Avg % Edit” value is 24.41% and the “Avg % Insert” value was 18.11%.

Take “ACUUGUCUUCUCUAUACCCA (tested as dual guide RNA, chemistry not given here) [CR005370]”: in the series on TTR [1], the “Avg % Deletion” value stood at 62.93%, the “Avg % Edit” value worked out at 63.52% and the “Avg % Insert” value is on record as 0.59%.

Take “AUACCAGUCCAGCGAGGCAG (tested as dual guide RNA, chemistry not given here) [CR005366]”: in the series with TTR [1], the “Avg % Deletion” value is listed as 76.67%, the “Avg % Edit” value worked out at 77.00% and the “Avg % Insert” value is on record as 0.33%.

In the case of “CAUUGACAGCAGGACUGCCU (tested as dual guide RNA, chemistry not given here) [CR005365]”, in the series with TTR [1], the “Avg % Deletion” value came out at 64.85%, the “Avg % Edit” value is reported as 64.94% and the “Avg % Insert” value was 0.10%.

“CCAGUCCAGCGAGGCAGAGG (tested as dual guide RNA, chemistry not given here) [CR005367]”: in the series with TTR [1], the “Avg % Deletion” value is 50.26%, the “Avg % Edit” value is 50.79% and the “Avg % Insert” value is reported as 0.53%.

For “GUAUUCACAGCCAACGACUC (tested as dual guide RNA, chemistry not given here) [CR003373]”, the “Avg % Deletion” value was 12.25% with TTR [2]; 25.12% in the series with TTR [3]; 1.77% in the series with TTR [4]; 0.07% in the series on TTR [5]; 0.19% with TTR [6]; 0.37% with TTR [7]. For the same sequence, the “Avg % Edit” value is reported as 13.55% in the series on TTR [2]; 27.29% in the series with TTR [3]; 17.69% in the series on TTR [4]; 0.87% in the series on TTR [5]; 3.64% in the series with TTR [6]; 1.40% in the series with TTR [7]. Further, the “Avg % Insert” value was found to be 1.31% in the series on TTR [2]; 3.31% in the series on TTR [3]; 15.92% in the series on TTR [4]; 0.83% with TTR [5]; 3.44% in the series with TTR [6]; 1.00% with TTR [7].

On to “UGCACGGCCACAUUGAUGGC (tested as dual guide RNA, chemistry not given here) [CR003349]”, for which the “Avg % Deletion” value in the series on TTR [2] stood at 5.16%; in the series with TTR [3], 4.82%; with TTR [4], 3.91%; in the series on TTR [5], 1.87%; in the series on TTR [6], 1.83%; with TTR [7], 1.70%. Further, the “Avg % Edit” value in the series with TTR [2] was determined as 13.19%; in the series with TTR [3], 14.14%; in the series on TTR [4] it was 8.36%; with TTR [5], 4.10%; in the series on TTR [6], 10.83%; with TTR [7], 2.57%. Besides, the “Avg % Insert” value was found to be 8.03% in the series on TTR [2]; 9.73% in the series on TTR [3]; 4.46% in the series on TTR [4]; 2.33% with TTR [5]; 9.00% in the series on TTR [6]; 0.90% in the series with TTR [7].

Values taken from patent US11795460B2, “Compositions and methods for TTR gene editing and treating ATTR amyloidosis” (Intellia Therapeutics, Inc., priority 2017, dated 2023).
